Experiments:
[1] = test system: cryogenic injury of the oral mucosa; experiment: Healing of mouth ulcers caused by cryogenic injury in rats; assay type: in vivo; conditions: 50 mg/kg; morphological analysis
Description: A model of mouth ulcers using ulcers caused by cryogenic injury of the inner surface of the cheek was used for this purpose. Tests were performed on 110 male rats weighing 180-200 g, with 10 animals in each group. Ulcers were created in experimental animals by pressing a metal rod of 2.5 mm in diameter cooled in liquid nitrogen to the mucosa for 10 seconds under ether anaesthesia. Animals were kept in separate cages, with normal food and water ad libitum. Treatment was administered by spraying of the mucous membrane of the mouth, 24 hours after wounding and then daily until healing was complete. Compound 2 was administered to the animals at a dose of 50 mg/kg (2 ml of aqueous solution). The following groups of animals were used:
The progress of wound healing was examined morphologically on days 1, 3, 7 and 14. On the day 3 the lesions were progressively worse, resulting in the growth of necrotic changes with the formation of a wide necrotic zone at the bottom of the wound, and growth and expansion of acute inflammation involving the muscle, skin and mucosa beyond the wound area. On day 7, the wounds in half of the animals were partially cleared of the necrotic mass, accompanied by the development of granulation tissue at the bottom of the wound and in the adjacent mucosa. […]

[2] = test system: regeneration of liver after partial hepatectomy; experiment: Liver regeneration after partial hepatectomy in rats; assay type: in vivo; conditions: for Level of recovery: 7 days, hepatectomy alone = 100
Description: Partial hepatectomy was performed using the conventional method (Higgins and Anderson, 1931) by removing the left lateral and central lobes of the liver from 80 male white rats, weighing 180-200 g.
Compound 2, Compound 4, Compound 5 or Compound 6 was administered to the experimental groups intraperitoneally in equimolar doses of 0.1 mM/kg and 0.2 mM/kg. These optimal doses were determined in preliminary experiments. The control group received intraperitoneal injections of saline solution. The compounds were administered on the day after the operation and then one injection was given daily over the course of 7 days, since maximum growth of the liver mass in rats is observed in the first 7 days after partial hepatectomy (Solopaev, 1980).
The effectiveness of the compounds was compared to that of a combination of non-steroid anabolic regeneration stimulators which are used in the treatment of liver pathology, namely Riboxin and potassium orotate at a dose of 0.2 mM/kg each (Rychnev and Frolov, 1984).
For quantitative evaluation of the regeneration process in the liver the coefficient of regeneration completion as determined by the formula below was used: [formula] where
Stimulation of the regeneration of tissue after hepatectomy in response to different medicinal preparations is associated with an increase in the synthesis of nucleic acids, as indicated by the increase in the content of RNA and DNA in the regenerated tissue. Quantitative analysis of DNA and RNA was performed by centrifugation. […] The enzymic component of anti-oxidant protection was also assessed on the basis of the activity of catalase and superoxidedismutase (SOD).
5 ml of […] of HCIO4 solution were added to the sample (100 mg). In order to ensure complete sedimentation of the acid-insoluble fraction, the beakers were put in ice for 15 minutes. Then they were centrifuged for 10 minutes at 5000 revolutions per minute. The sediment was washed twice with 0.2 M HCIO4. After the final centrifugation, the walls of the beaker were carefully dried with gauze and filter paper. The sediment was ground down with a glass pestle, suspended in 1 ml of water and then 1 ml of 0.6 M KON solution was added at room temperature. Hydrolysis was performed over the course of 1 hour at 37° C., then the beakers were put in ice to stop the hydrolysis process. 4 ml of the 0.6 M solution were added to each beaker and the beakers were left in ice for another 15 minutes, then centrifuged for 15 minutes at 5000 revolutions per minute. The supernatant was used to determine the RNA by UV absorption at 260 nm and 290 nm compared to the control sample containing 0.4M of HCIO4). The amount of RNA in μg per 1 ml of the supernatant was calculated using the following formula: [formula] where C=is the RNA concentration (μg/ml)
DNA analysis was carried out on the sediment remaining after the alkaline hydrolysis used to determine RNA. 0.5 M of HCIO4 (5 ml per sample) was poured into the dried beaker containing the sediment. Hydrolysis was performed in a boiling water bath for 20 minutes. The amount of DNA in μg per 1 ml of the hydrolysate was calculated using the following formula: [formula] where C=is the DNA concentration (μg/ml). Catalase Activity
Catalase activity was determined using the permanganate method. The optimal amount of the substrate (3 ml of 1% H2O2) and 1 ml of the enzyme were added to 10 ml of phosphate buffer, pH 7.8. After 10 minutes the reaction was stopped by adding 1.5 ml of H2SO4 (50%). The remaining hydrogen peroxide was filtered with 0.1M of KMnO4 solution. Catalase activity was calculated on the basis that 1 ml of 0.1M of KMnO4 solution corresponds to […] of H2O2.
SOD activity was determined using the dianisidine method, which is based on the fact that under ultraviolet irradiation Riboflavin (Rb) is converted to an excited (ionised) state and therefore becomes able to attack reduced dianisidine (DH2). […]

CC[n+]1cn(C)c(C(=O)NC)c1C(=O)NC.O=S(=O)([O-])c1ccccc1 [Compound 2, 1-methyl-3-ethyl-4,5-bis(N-methylcarbamoyl)-imidazolium benzenesulfonate]
healing of cryogenic injury of the oral mucosa compared to untreated controls [1]: more pronounced, earlier and more complete healing | Catalase E activity ([2]; 0.1 mM/kg): 18.0 ± 3.1 μgM/min/g tissue × 1000 | DNA content (in mg/g of tissue) ([2]; 0.1 mM/kg): 4.2 ± 0.37 mg/g of tissue | Protein content ([2]; 0.1 mM/kg): 86.4 ± 9.8 Mg/g tissue | RNA content (mg/g of tissue) ([2]; 0.1 mM/kg): 7.07 ± 0.18 mg/g of tissue | SOD activity ([2]; 0.1 mM/kg): 78.9 ± 5.8 Units/g tissue | Level of recovery ([2]; 0.1 mM/kg intraperitoneally): 150.5 | DNA content higher than in animals undergoing hepatectomy alone ([2]; 0.1 mM/kg or 0.2 MM/kg): 15% | Catalase E activity ([2]; 0.2 mM/kg): 20.0 ± 1.92 μgM/min/g tissue × 1000 | DNA content (in mg/g of tissue) ([2]; 0.2 mM/kg): 4.1 ± 0.13 mg/g of tissue | Protein content ([2]; 0.2 mM/kg): 94.8 ± 8.4 Mg/g tissue | RNA content (mg/g of tissue) ([2]; 0.2 mM/kg): 6.96 ± 0.39 mg/g of tissue | SOD activity ([2]; 0.2 mM/kg): 98.0 ± 4.6 Units/g tissue | Level of recovery ([2]; 0.2 mM/kg intraperitoneally): 134.9 | increase of the organ regeneration completeness ratio ([2]; 0.1 and 0.2 mM/kg): 34.9-50.5%

Source: patent US20060135587A1, “Method and compounds for promoting healing and reducing inflammation” (priority 2002, published 2006)
